These results are taken from EP1978972B1, “USE OF ALKYLGLUCOSIDE ESTERS AS BETA-DEFENSIN INDUCERS” (Pierre Fabre Dermo-Cosmétique, priority 2006, dated 2007).

The test system of this data set is LL-37. The data set can be described thus: Induction of LL-37 gene expression in skin explant, systemic treatment, quantitative RT-PCR. Format: cell-based, human. To be noted: 30 µg/ml. From the text:
Il est connu de WO 97/45101 que les esters d'α-alkylglucoside peuvent être utilisés comme agent anti-microbien et/ou anti-fongique pour agir en tant que conservateur dans une composition, pour la préserver d'un développement microbien. […]

In the case of laurate de butylglucoside [αβ-LBG brut], the “FI, LL-37” value runs as follows: (2 h) 6; (up to 24 h, in words) “reste stable jusqu'à 24 h”.
